Measured values published in paper PMC2994747, “Molecular Characterization of c-Abl/c-Src Kinase Inhibitors Targeted against Murine Tumour Progenitor Cells that Express Stem Cell Markers” (PLoS ONE, 2010).

Experiments:
GammaA3 = test: Caspase-Glo 3/7 activity assay; assay type: cell-based, mouse; conditions: IC50 concentration
BetaD5 = test: Caspase-Glo 3/7 activity assay; assay type: cell-based, mouse; conditions: IC50 concentration, 24 h, vs vehicle
[1] = tested on: murine and human tumour cell lines; test: MTS cell viability assay, statements over the cell line panel; assay type: cell-based; conditions: 96 h; cell line not stated at b77; read-out: IC50 (MTS) after 96 h of treatment
Method: Three human and eleven murine cancer cell lines were used. The human NSCLC cell line A549 (ACC 107) and the human colorectal carcinoma cell line CaCo2 (ACC 169) were obtained from Deutsche Sammlung von Mikroorganismen und Zellkulturen (DSMZ, Braunschweig, Germany). The human hepatocellular carcinoma cell line HepG2 (HB-8065) was obtained from American Type Culture Collection (Manassas, VA, USA). The 11 murine NSCLC cell lines were established as described recently. Cells were grown in monolayer cultures in DMEM containing 10% foetal calf serum, 4 mmol/l L-glutamine and 2% Penicillin/Streptomycin at 37°C in a humidified atmosphere of 95% air and 5% CO2.
Cell culture viability was monitored by CellTiter96® AQueous One Solution Cell Proliferation Assay (Promega GmbH, Mannheim, Germany). The cells were seeded in triplicates in 96-well microtitre plates and treated with the dual kinase inhibitors or vehicle (0.2% DMSO). After 24 h or 96 h of treatment the MTS tetrazolium reagent was added to the cells and incubated for 1 h. Absorbance at 490 nm was assayed with a Victor3 Wallac 1420 Multilabel counter (PerkinElmer, Waltham, MA, USA).

GammaD12 = conditions: IC50 concentration, 24 h, vs vehicle
Method: According to instructions, Caspase-Glo® 3/7 assay (Promega GmbH, Mannheim, Germany) was used for monitoring caspase activity. Briefly, the same volume Caspase-Glo reagent as culture medium was added and incubated 1 h at room temperature. Luminescence was read with a Victor3 Wallac 1420 Multilabel counter (PerkinElmer, Rodgau, Germany). Background absorbance (medium only) was subtracted and the data given as percent of vehicle controls.

IC50 [1] [nM] | Compound | Increase in caspase-3/7 activity (GammaA3; 24 h, vs vehicle) [fold] | Increase in caspase-3/7 activity (GammaA3; 96 h) | Increase in caspase-3/7 activity (BetaD5) [fold] | Increase in caspase-3/7 activity (GammaD12)
2700 | Clc1cccc(Nc2nc(SC3CCCC3)nc3c2cnn3CC(Cl)c2ccccc2)c1 (centres unmarked) [Si135] | 10 | about 30 % of control | 10 | –
– | Fc1ccccc1CNc1ncnc2c1cnn2CC(Cl)c1ccc(Br)cc1 (centres unmarked) [Si162] | – | – | – | up to 3 fold
